Test systems include SNB-19; SK-OV-3; SF-268; MDA-MB-231; NCI-H226; BT-549; SW-620; HCT-116; 786-0; NCI/ADR-RES; ACHN; EKVX; Malme-3M; DU-145; SK-MEL-2; K562; LOX IMVI; A549; RPMI-8226; SNB-75.
Holding throughout (test): NCI anticancer screen, dose series, 48 h

Structures are written as SMILES.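 The compound was tested at five concentrations on cells cultured in 96-well plates, with a 48-hour exposure period. The concentration for 50% growth inhibition is given as GI50.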 Calls of active or inactive are those of the source. Cut-off read from the data, not from the text of the source: active = GI50 up to about 1.1 µM and inactive = higher.

Take `CCC(=O)OCN1C(=O)C=CC1=O`: the GI50 in the assay with SNB-19 was 18.5 µM (inactive); in the assay on SK-OV-3, > 43.1 µM (inactive); in the assay with SF-268, 17.1 µM (inactive); in the assay with MDA-MB-231, 18.7 µM (inactive); in the assay with NCI-H226, 41.9 µM (inactive); in the assay with BT-549, 18.5 µM (inactive). Further, the GI50 with SW-620 is 2.01 µM (inactive); in the assay on HCT-116, 16.2 µM (inactive); in the assay on 786-0, 5.38 µM (inactive); with NCI/ADR-RES, 24 µM (inactive); in the assay on ACHN it was 8.2 µM (inactive); in the assay on EKVX, 19.8 µM (inactive). Also, the GI50 in the assay on Malme-3M was 13.8 µM (inactive); in the assay with DU-145, 16.6 µM (inactive); with SK-MEL-2 it was 15.7 µM (inactive); in the assay on K562, 3.26 µM (inactive); in the assay with LOX IMVI, 18.5 µM (inactive); in the assay on A549, 18.7 µM (inactive).

`O=C(c1nsc(Cl)c1Cl)N1CCCCC1`: the GI50 is 82.8 µM (inactive) in the assay on SNB-19; > 100 µM (inactive) in the assay with SK-OV-3; > 100 µM (inactive) in the assay on SF-268; > 100 µM (inactive) in the assay with RPMI-8226; > 100 µM (inactive) with MDA-MB-231; > 100 µM (inactive) in the assay with NCI-H226. Also, the GI50 in the assay with BT-549, with SW-620, with SNB-75, in the assay with HCT-116, with 786-0 and in the assay with NCI/ADR-RES was > 100 µM (inactive) throughout. For the same compound, the GI50 in the assay with EKVX, in the assay on Malme-3M, in the assay on DU-145, in the assay with K562, in the assay with LOX IMVI and with A549 was > 100 µM (inactive) throughout.

Consider `CC1(C)Oc2ccc3c(=O)c4ccccc4oc3c2C1C(=O)O` (stereo not given), for which the GI50 with SK-OV-3, in the assay on SF-268, in the assay with MDA-MB-231, in the assay with NCI-H226, in the assay with BT-549 and with HCT-116 was > 100 µM (inactive) in each case. Further, the GI50 in the assay with 786-0, in the assay with NCI/ADR-RES, in the assay on EKVX, with Malme-3M, in the assay with DU-145 and in the assay with SK-MEL-2 was > 100 µM (inactive) in each case. The GI50 in the assay on K562 and in the assay on A549 was > 100 µM (inactive) each time.

For `O=C1C(Cl)=C(OCCCCl)C(=O)c2c(O)ccc(O)c21`, the GI50 is 18.3 µM (inactive) in the assay with SNB-19; 21.5 µM (inactive) in the assay with SK-OV-3; 3.08 µM (inactive) with SF-268; 1.37 µM (inactive) in the assay on RPMI-8226; 2.31 µM (inactive) in the assay with MDA-MB-231; 16.9 µM (inactive) in the assay with NCI-H226. In addition, the GI50 is 1.92 µM (inactive) in the assay on BT-549; 1.35 µM (inactive) in the assay on SW-620; 2 µM (inactive) in the assay with SNB-75; 1.85 µM (inactive) in the assay on HCT-116; 2.04 µM (inactive) in the assay with 786-0; 3.69 µM (inactive) in the assay with NCI/ADR-RES. Moreover, the GI50 with ACHN is 5.07 µM (inactive); in the assay with EKVX it was 17.7 µM (inactive); in the assay with Malme-3M, 1.74 µM (inactive); in the assay with DU-145, 9.73 µM (inactive); with K562, 0.401 µM (active); in the assay on LOX IMVI, 1.76 µM (inactive). The GI50 with A549 is 6.4 µM (inactive).

For `Cc1cnccc1/N=N/c1ccc(N(C)C)cc1`, the GI50 in the assay on SNB-19 is 40 µM (inactive); in the assay on SK-OV-3 it was 16.7 µM (inactive); in the assay on SF-268, 16.8 µM (inactive); in the assay with RPMI-8226 it was 18.5 µM (inactive); in the assay on MDA-MB-231, 16.3 µM (inactive); with NCI-H226 it was 4.82 µM (inactive). Also, the GI50 with BT-549 is 15.9 µM (inactive); with SW-620, 22.4 µM (inactive); in the assay on SNB-75, 14.5 µM (inactive); in the assay with HCT-116, 22.9 µM (inactive); in the assay with 786-0, 42.2 µM (inactive); in the assay with NCI/ADR-RES, 13 µM (inactive). The GI50 is 20.5 µM (inactive) in the assay on ACHN; 9.55 µM (inactive) with EKVX; 35.7 µM (inactive) in the assay on Malme-3M; 66.8 µM (inactive) with DU-145; 18.6 µM (inactive) with K562; 17.4 µM (inactive) in the assay on LOX IMVI. Moreover, the GI50 in the assay on A549 is 30.7 µM (inactive).

As for `CN1C(=O)C23CCCCC2CC1(c1ccccc1)S3` (stereo not given), the GI50 in the assay on SNB-19 is > 100 µM (inactive); with SK-OV-3 it was > 100 µM (inactive); with SF-268, > 100 µM (inactive); in the assay on RPMI-8226, 49.8 µM (inactive); with MDA-MB-231 it was 71.1 µM (inactive); with NCI-H226, > 100 µM (inactive). In addition, the GI50 is 99.3 µM (inactive) in the assay with BT-549; > 100 µM (inactive) with SW-620; 60.3 µM (inactive) in the assay with HCT-116; > 100 µM (inactive) with 786-0; 38.5 µM (inactive) in the assay with NCI/ADR-RES; > 100 µM (inactive) in the assay on ACHN. For the same compound, the GI50 in the assay with EKVX is > 100 µM (inactive); with Malme-3M, > 100 µM (inactive); in the assay on DU-145 it was > 100 µM (inactive); with SK-MEL-2 it was 47.5 µM (inactive); with K562 it was 71.1 µM (inactive); in the assay with LOX IMVI, 79.8 µM (inactive). Also, the GI50 with A549 was 64.7 µM (inactive).

`N#Cc1c(O)c(C=O)c(=O)n2c1[nH]c1ccccc12`: the GI50 with SNB-19, with SK-OV-3, in the assay with SF-268, in the assay on RPMI-8226, with MDA-MB-231 and with NCI-H226 was > 100 µM (inactive) each time. Besides, the GI50 in the assay with BT-549, in the assay on SW-620, in the assay on SNB-75, in the assay on HCT-116, with 786-0 and in the assay with NCI/ADR-RES was > 100 µM (inactive) each time. For the same compound, the GI50 in the assay with ACHN, in the assay with EKVX, in the assay with Malme-3M, in the assay on DU-145, in the assay on K562 and in the assay on LOX IMVI was > 100 µM (inactive) throughout. Moreover, the GI50 in the assay on A549 is > 100 µM (inactive).

For `N#CSC1CCCCNC1=O` (stereo not given), the GI50 was 15.2 µM (inactive) in the assay with SNB-19; 9.98 µM (inactive) in the assay with SK-OV-3; 11.8 µM (inactive) in the assay on SF-268; 5.96 µM (inactive) in the assay with RPMI-8226; 14.9 µM (inactive) with MDA-MB-231; 12 µM (inactive) in the assay with NCI-H226. For the same compound, the GI50 in the assay on BT-549 was 5.93 µM (inactive); with HCT-116 it was 8.45 µM (inactive); in the assay on 786-0 it was 14.7 µM (inactive); in the assay on NCI/ADR-RES it was 12.8 µM (inactive); in the assay on ACHN, 14.9 µM (inactive); in the assay on EKVX, 17.9 µM (inactive). In addition, the GI50 in the assay on Malme-3M is 14.4 µM (inactive); with DU-145 it was 11.1 µM (inactive); with SK-MEL-2, 11.4 µM (inactive); in the assay on K562 it was 18.2 µM (inactive); with LOX IMVI, 13.5 µM (inactive); in the assay on A549 it was 15.1 µM (inactive).

With `COc1ccc(N2C(=O)/C(=C\c3cccc(Oc4ccccc4)c3)SC2c2ccccc2)cc1` (stereo not given), the GI50 was 24.2 µM (inactive) in the assay on SNB-19; 80.9 µM (inactive) in the assay on SK-OV-3; 33.2 µM (inactive) with SF-268; 21.2 µM (inactive) with RPMI-8226; > 100 µM (inactive) in the assay on MDA-MB-231; > 100 µM (inactive) in the assay on NCI-H226. The GI50 is 25.3 µM (inactive) in the assay with BT-549; 32.9 µM (inactive) in the assay with SW-620; 25.4 µM (inactive) with HCT-116; > 100 µM (inactive) with 786-0; 42.5 µM (inactive) with NCI/ADR-RES; > 100 µM (inactive) in the assay with ACHN. Further, the GI50 with EKVX is > 100 µM (inactive); with Malme-3M, 34.6 µM (inactive); in the assay on DU-145, 73.8 µM (inactive); in the assay with SK-MEL-2, > 100 µM (inactive); in the assay with K562, 26.4 µM (inactive); with LOX IMVI, 21.9 µM (inactive). The GI50 with A549 is > 100 µM (inactive).

Consider `COC(=O)C1=C(O)c2ccc(Cl)cc2S(=O)(=O)N1C`, for which the GI50 is 60.4 µM (inactive) in the assay on SNB-19; > 100 µM (inactive) in the assay on SK-OV-3; 64.7 µM (inactive) in the assay on SF-268; 80.7 µM (inactive) with RPMI-8226; > 100 µM (inactive) with MDA-MB-231; > 100 µM (inactive) with BT-549. For the same compound, the GI50 in the assay with SW-620 was 80.2 µM (inactive); with HCT-116, > 100 µM (inactive); in the assay with 786-0 it was > 100 µM (inactive); in the assay with NCI/ADR-RES, 19.1 µM (inactive); in the assay on ACHN, > 100 µM (inactive); with EKVX, 42.2 µM (inactive). Besides, the GI50 in the assay on Malme-3M is 77.6 µM (inactive); in the assay on DU-145, > 100 µM (inactive); in the assay with SK-MEL-2, > 100 µM (inactive); in the assay on K562 it was 32.1 µM (inactive); in the assay with LOX IMVI, > 100 µM (inactive); with A549, 44.4 µM (inactive).

As to `O=c1c(Cc2ccc(Cl)cc2)nnc2sc(-c3ccc(-c4ccc(Cl)cc4Cl)o3)nn12`, the GI50 with SNB-19 is 33.3 µM (inactive); with SK-OV-3, > 100 µM (inactive); with SF-268, > 100 µM (inactive); with RPMI-8226, > 100 µM (inactive); in the assay on MDA-MB-231, 93.3 µM (inactive); in the assay with NCI-H226, > 100 µM (inactive). For the same compound, the GI50 in the assay with BT-549 was > 100 µM (inactive); with SW-620 it was > 100 µM (inactive); with HCT-116 it was 27.5 µM (inactive); with 786-0, 48 µM (inactive); with NCI/ADR-RES, 80.5 µM (inactive); in the assay on ACHN, 52 µM (inactive). Moreover, the GI50 in the assay with EKVX was 29.4 µM (inactive); in the assay on Malme-3M, > 100 µM (inactive); in the assay with DU-145 it was 70 µM (inactive); in the assay with SK-MEL-2, 36.7 µM (inactive); in the assay on K562, 89.9 µM (inactive); with LOX IMVI, 47.1 µM (inactive). The GI50 in the assay on A549 was 80.5 µM (inactive).

Source of the values: ChEMBL document CHEMBL1201862, “PubChem BioAssay data set” (2004).
